Drawing on ChEMBL document CHEMBL4483862, “Open-source discovery of chemical leads for next-generation chemoprotective antimalarials” (2018), this text covers IC50 and IC90 for 37 molecules.

The assay has as its system Plasmodium berghei. Description: Luciferase/luciferin-expressing antifolate-resistant parasites were used to infect a culture of HepG2 cells that were pre-incubated with compounds. Infected hepatocytes emit light due to the luciferase reaction. Assay results are presented as the percent inhibition of light emission compared to control. […]. Type of assay: functional. The settings on record: sporozoite; for IC90: read-out: LUCIFERASE INFECTION ASSAY - IC90.

Where [1] appears, read: read-out: LUCIFERASE INFECTION ASSAY - IC50.

Broadly, the IC50 is the concentration that gives 50% inhibition. As usually defined, the IC90 is the concentration needed for an effect of 90%.

As for `COCCCNc1nccn2c(-c3ccccc3OC)cnc12`, the IC90 turned out to be 5 µM. Where the note is “FFLUC_HILL_SLOPE 1.63, FFLUC_R_SQUARED 0.685, HEPG2TOX_HILL_SLOPE 3.12, HEPG2TOX_R_SQUARED 0.689, PBLUC_HILL_SLOPE 1.97, PBLUC_R_SQUARED 0.68, read-out: LUCIFERASE INFECTION ASSAY - IC50”, the IC50 is 1.64 µM.

As for `Cc1nnc(SC2CCCCC2=O)n1C1CCCCC1` (centres undefined), the IC90 was above 10 µM. The IC50 under setting [1] is above 10 µM.

For `C=CCn1c(COc2ccc(C(C)(C)C)cc2)nnc1SCC(=O)N(C)C1CCCCC1`, the IC90 was above 10 µM. Moreover, under “HEPG2TOX_HILL_SLOPE 8.72, HEPG2TOX_R_SQUARED 0.783, PBLUC_HILL_SLOPE 29.5, PBLUC_R_SQUARED 0.113, read-out: LUCIFERASE INFECTION ASSAY - IC50”, the IC50 was determined as 9.61 µM.

`N#Cc1ccccc1S(=O)(=O)NC(=O)Cn1cc(-c2cccc(F)c2)nn1`: the IC90 is above 8.56 µM. In addition, the IC50 under setting [1] was above 8.56 µM.

Turning to `CC(C)(C)NC(=O)c1cc(-c2ccccc2Cl)nc2ccccc12`, the IC90 was above 9.74 µM. Further, the IC50 under setting [1] was above 9.74 µM.

Consider `Cc1cc(C(=O)C(C)Sc2nnnn2C2CC2)c(C)n1-c1ccccc1` (centres undefined), for which the 90% effect concentration (IC90) stood at 7.24 µM. In addition, the IC50 (PBLUC_HILL_SLOPE 0.896, PBLUC_R_SQUARED 0.762, read-out: LUCIFERASE INFECTION ASSAY - IC50) was found to be 0.623 µM.

As to `CC1Sc2ccc(C(=O)Nc3ccnn3Cc3cccc(Cl)c3Cl)cc2NC1=O` (centres undefined), the IC90 was above 10 µM. Besides, the IC50 under setting [1] is above 10 µM.

With `c1ccc2cc(-c3csc(Nc4cccc5ccccc45)n3)ccc2c1`, the IC90 was above 9.36 µM. Under setting [1], the IC50 is above 9.36 µM.

Consider `CCn1c(-c2ccccc2)c(C(=O)COc2ccccc2OC)c2ccccc21`, for which the IC90 is above 10 µM. Moreover, under setting [1], the IC50 was above 10 µM.

Take `CC(C)c1ccccc1N(C(=O)C1CC(=O)N(CCc2ccccc2)C1)c1nc2ccccc2s1` (centres undefined): the IC90 was above 10 µM. Further, the concentration for half-maximal inhibition (IC50) (HEPG2TOX_HILL_SLOPE 7.95, HEPG2TOX_R_SQUARED 0.294, read-out: LUCIFERASE INFECTION ASSAY - IC50) is above 10 µM.

With `FC(F)(F)Oc1ccc(-c2cnc3ccc(NCc4ccccn4)nn23)cc1`, the IC90 was found to be 1.24 µM. For the same molecule, under “HEPG2TOX_HILL_SLOPE 11.3, HEPG2TOX_R_SQUARED 0.834, PBLUC_HILL_SLOPE 11.1, PBLUC_R_SQUARED 0.439, read-out: LUCIFERASE INFECTION ASSAY - IC50”, the IC50 was determined as 1.02 µM.

For `Cc1csc2sc(COC(=O)Nc3ccccc3)c(C)c12`, the IC90 is above 10.4 µM. The IC50 (HEPG2TOX_HILL_SLOPE 0.302, HEPG2TOX_R_SQUARED 0.714, PBLUC_HILL_SLOPE 1.42, PBLUC_R_SQUARED 0.482, read-out: LUCIFERASE INFECTION ASSAY - IC50) was 8.97 µM.

As for `COc1ccccc1C(=O)c1cnc(Nc2cccc(Cc3ccccc3)c2)[nH]1`, the 90% effect concentration (IC90) was above 8.61 µM. Also, the IC50 (HEPG2TOX_HILL_SLOPE 11.7, HEPG2TOX_R_SQUARED 0.773, PBLUC_HILL_SLOPE 15.1, PBLUC_R_SQUARED 0.204, read-out: LUCIFERASE INFECTION ASSAY - IC50) came to 7.82 µM.

As to `CN(C)S(=O)(=O)c1cc(C(=O)Nc2nc(-c3ccccc3)cn2/N=C/c2ccccc2)ccc1Cl`, the IC90 was above 10 µM. Besides, under “PBLUC_HILL_SLOPE 2.59, PBLUC_R_SQUARED 0.747, read-out: LUCIFERASE INFECTION ASSAY - IC50”, the IC50 amounted to 5.75 µM.

On to `O=C(NCCSCc1csc2ccc(Cl)cc12)Nc1ccccc1`, for which the IC90 was above 8.75 µM. The IC50 (PBLUC_HILL_SLOPE 14.3, PBLUC_R_SQUARED 0.456, read-out: LUCIFERASE INFECTION ASSAY - IC50) came to 8.24 µM.

For `COC(=O)C1=C(Nc2ccc(OS(=O)(=O)c3ccc(Cl)cc3)cc2)CSC1`, the IC90 is above 7.75 µM. In addition, the IC50 under setting [1] is above 7.75 µM.

Regarding `COc1ccc2c(C(=O)N/N=C/c3cc(Br)c4ccccc4c3O)cccc2c1`, the IC90 worked out at 3.64 µM. Moreover, the IC50 (FFLUC_HILL_SLOPE 0.529, FFLUC_R_SQUARED 0.712, HEPG2TOX_HILL_SLOPE 1.8, HEPG2TOX_R_SQUARED 0.756, PBLUC_HILL_SLOPE 12.3, PBLUC_R_SQUARED 0.402, read-out: LUCIFERASE INFECTION ASSAY - IC50) turned out to be 3.05 µM.

Regarding `CSc1ccc(C=C2C(=O)OC(C)(C)OC2=O)s1`, the IC90 is above 11.6 µM. In addition, under “HEPG2TOX_HILL_SLOPE 0.602, HEPG2TOX_R_SQUARED 0.801, PBLUC_HILL_SLOPE 0.853, PBLUC_R_SQUARED 0.0835, read-out: LUCIFERASE INFECTION ASSAY - IC50”, the IC50 is above 11.6 µM.

With `Cc1cc(/C=C(\C#N)c2nc3ccccc3[nH]2)c(C)n1-c1cc(C(F)(F)F)ccc1Cl`, the IC90 is 5.02 µM. For the same molecule, the IC50 (HEPG2TOX_HILL_SLOPE 9.28, HEPG2TOX_R_SQUARED 0.884, PBLUC_HILL_SLOPE 1.82, PBLUC_R_SQUARED 0.761, read-out: LUCIFERASE INFECTION ASSAY - IC50) stood at 1.5 µM.

Turning to `NC(COCc1ccccc1)c1csc(NC(=O)Nc2ccccc2-c2ccccc2)n1` (centres undefined), the IC90 amounted to 5.31 µM. Besides, the IC50 (PBLUC_HILL_SLOPE 5.09, PBLUC_R_SQUARED 0.778, read-out: LUCIFERASE INFECTION ASSAY - IC50) is 3.45 µM.

For `C[C@]12CC[C@H](O)C[C@H]1CC[C@@H]1C2CC[C@]2(C)[C@@H](C3=CC(=O)OC3)[C@@H](O)C[C@]12O` (some centres undefined), the IC90 was determined as 8.37 µM. Besides, the IC50 (HEPG2TOX_HILL_SLOPE 3.04, HEPG2TOX_R_SQUARED 0.92, PBLUC_HILL_SLOPE 1.95, PBLUC_R_SQUARED 0.451, read-out: LUCIFERASE INFECTION ASSAY - IC50) came out at 2.7 µM.

With `Nc1cccc(-c2cn3c(-c4ccc5c(c4)OCO5)cnc3cn2)c1`, the IC90 is 8.12 µM. Also, the IC50 (PBLUC_HILL_SLOPE 4.69, PBLUC_R_SQUARED 0.303, read-out: LUCIFERASE INFECTION ASSAY - IC50) was 5.08 µM.

On to `CCOC(=O)c1cnc(-c2ccccn2)nc1O`, for which the IC90 was above 13.5 µM. The IC50 (HEPG2TOX_HILL_SLOPE 12.4, HEPG2TOX_R_SQUARED 0.686, PBLUC_HILL_SLOPE 4.24, PBLUC_R_SQUARED 0.376, read-out: LUCIFERASE INFECTION ASSAY - IC50) was determined as 8.76 µM.

For `Oc1c(Cl)cc(Cl)cc1C1Nc2cccc3cccc(c23)N1`, the IC90 was above 9.96 µM. Also, the IC50 under setting [1] was above 9.96 µM.

Turning to `O=C(NCC1CCCO1)c1cc2c([nH]c3ccccc32)c(-c2ccc(F)cc2)n1` (centres undefined), the IC90 is 8.34 µM. Moreover, for the setting “HEPG2TOX_HILL_SLOPE 1.25, HEPG2TOX_R_SQUARED 0.9, PBLUC_HILL_SLOPE 2.06, PBLUC_R_SQUARED 0.74, read-out: LUCIFERASE INFECTION ASSAY - IC50”, the IC50 amounted to 2.86 µM.

As to `CCCCC(CC)C[n+]1c(C)cc(C=C2Sc3ccccc3N2CC)cc1C` (centres undefined), the IC90 is 0.111 µM. Where the note is “HEPG2TOX_HILL_SLOPE 1.26, HEPG2TOX_R_SQUARED 0.976, PBLUC_HILL_SLOPE 1.65, PBLUC_R_SQUARED 0.944, read-out: LUCIFERASE INFECTION ASSAY - IC50”, the IC50 was determined as 0.0293 µM.

As to `CCOc1ccc(S(=O)(=O)N2CCCCC2)cc1NC(=O)C1CC=CCC1` (centres undefined), the 90% effect concentration (IC90) was above 10 µM. For the same molecule, under setting [1], the IC50 was above 10 µM.

Consider `C=CCn1c(SCC(=O)Nc2sc(C)c(C)c2C(=O)OCC)nc2scc(-c3ccc(OC)cc3)c2c1=O`, for which the IC90 is above 10 µM. Moreover, the IC50 (FFLUC_HILL_SLOPE 9.8, FFLUC_R_SQUARED 0.347, HEPG2TOX_HILL_SLOPE 0.0825, HEPG2TOX_R_SQUARED 0.0539, PBLUC_HILL_SLOPE 3.18, PBLUC_R_SQUARED 0.293, read-out: LUCIFERASE INFECTION ASSAY - IC50) amounted to 5.66 µM.

Turning to `COc1ccc2c(CC(=O)N(c3cc(C)cc(C)c3)c3nc(-c4ccc(Br)cc4)cs3)coc2c1`, the IC90 was above 10 µM. In addition, the IC50 (FFLUC_HILL_SLOPE 2.23, FFLUC_R_SQUARED 0.6, read-out: LUCIFERASE INFECTION ASSAY - IC50) was above 10 µM.

Take `CN(C(=O)c1cc(-c2ccccc2OCc2ccccc2)ncn1)c1ccccc1`: the IC90 was 5 µM. In addition, the IC50 (HEPG2TOX_HILL_SLOPE 0.0237, HEPG2TOX_R_SQUARED 0.016, PBLUC_HILL_SLOPE 4.42, PBLUC_R_SQUARED 0.717, read-out: LUCIFERASE INFECTION ASSAY - IC50) is 3.04 µM.

In the case of `Cc1ccc2c(c1)C(=O)C(=O)N2CCN1CCCCC1`, the IC90 was above 12.1 µM. Besides, the IC50 (FFLUC_HILL_SLOPE 11.5, FFLUC_R_SQUARED 0.31, read-out: LUCIFERASE INFECTION ASSAY - IC50) is above 12.1 µM.

Take `CCCN1CCCC(NC(=S)Nc2ccc(Br)cc2C)C1` (centres undefined): the IC90 was above 8.91 µM. In addition, under setting [1], the IC50 is above 8.91 µM.

As for `O=S(=O)(Oc1ccc(Cl)cc1)c1cc(S(=O)(=O)c2ccccc2)cs1`, the IC90 was above 7.95 µM. Further, under setting [1], the IC50 was above 7.95 µM.

For `COc1ccc(/C=C/c2ccc3c(Cl)cc(Cl)c(O)c3n2)cc1`, the IC90 is 0.43 µM. Further, the IC50 (HEPG2TOX_HILL_SLOPE 0.83, HEPG2TOX_R_SQUARED 0.868, PBLUC_HILL_SLOPE 16.3, PBLUC_R_SQUARED 0.735, read-out: LUCIFERASE INFECTION ASSAY - IC50) was determined as 0.375 µM.

With `Cc1ccccc1S(=O)(=O)Nc1nccnc1N1CCN(S(=O)(=O)c2cccc3ccccc23)CC1`, the IC90 is above 6.3 µM. In addition, under setting [1], the IC50 is above 6.3 µM.

In the case of `Cc1sc2ncnc(SCC(=O)N3N=C4/C(=C/c5ccccc5)CCCC4C3c3ccccc3)c2c1C` (centres undefined), the IC90 is above 10 µM. The IC50 (HEPG2TOX_HILL_SLOPE 0.257, HEPG2TOX_R_SQUARED 0.0474, read-out: LUCIFERASE INFECTION ASSAY - IC50) was above 10 µM.

As for `Cc1ccc(O)c(-c2cc(C(=O)Nc3ccccc3C(F)(F)F)[nH]n2)c1`, the IC90 was above 9.13 µM. For the same molecule, under setting [1], the IC50 was above 9.13 µM.
